From US20120107323A1, “KINASE PROTEIN BINDING INHIBITORS” (University of Florida, priority 2009, published 2012)

Legend:
C8161 melanoma cells = assay: Cell counts, C8161; format: cell-based, human
[1] = test system: FAK +/+ and FAK −/− mouse embryonic fibroblast; assay: MTT assay on FAK wildtype and null fibroblasts; format: cell-based
Description: Cell viability (MTT) and CFSE Proliferation assay: Cells were plated in 96-well plates and let adhere overnight. After cell treatment, cell viability was measured by 3-(4,5-dimethylthiazol-2-yl)-2,5-diphenyl tetrazolium bromide (MTT) assay (CellTiter 96® Aqueous, Promega, Madison, Wis.).
Cell proliferation assay: Cell proliferation assay (Promega) using CellTiter 96 aqueous one solution was performed by adding a small amount of the One Solution Reagent directly to culture wells, incubating for 1-4 hours and then recording absorbance at 490 nm with a spectrophotometric plate reader. The quantity of formazan product as measured by the amount of 490 nm absorbance was directly proportional to the number of living cells in culture.
Cell viability and detachment assays: After cells were treated with siRNA transfection, cell viability was measured by 3-(4,5-dimethylthiazol2-yl)-2,5-diphenyl tetrazolium bromide (MTT) assay (CellTiter 96® AQueous, Promega, Madison, Wis.). Briefly, 20 μl of the tetrazolium compound was added to each well. The cells were then incubated at 37° C. for 1 h. The plate was read at 490 nm with a plate reader to determine the viability. In detachment assays, detached and attached cells were harvested separately and counted in a hemocytometer. The percentage of detachment was calculated by dividing the number of detached cells by the total number of cells. Apoptosis assays: After treatment, attached and detached cells were collected, counted and prepared for terminal uridine deoxynucleotidyl transferase (TUNEL) assay by utilizing an APO-BRDU kit (BD Pharmingen, San Diego, Calif.) according to the manufacturer's instructions. Stained cells were analyzed with a fluorescence-activated cell sorting-Calibur flow cytometer (BD Biosciences). Calculation of the percentage of apoptotic cells in the sample was completed with CellQuest software (BD Biosciences). Apoptotic cells were also analyzed by Hoechst staining. Hoechst 33342 ([…]) was added to the fixed cells and the specimens were mounted on glass coverslips. The slides were viewed under the Zeiss microscope for apoptotic nuclei. The percent of apoptotic cells was calculated as the ratio of apoptotic cells to total number of cells.

[2] = test system: esophageal patient #5 adenocarcinoma tumor; assay: Esophageal patient #5 xenograft; format: in vivo, mice
Excerpt: For tumor samples from human patients with esophageal or pancreatic cancer, the University of Florida IACUC approved the following protocol (IACUC Study #2000902767). A total of 25 patients, 10 with pancreatic cancer and 15 with esophageal cancer have been identified and implanted into nude mice. Initially small pieces (0.3×0.3×0.3 cm) from fresh pancreatic and esophageal human tumor samples were obtained from surgical specimens of patients operated at the University of Florida Shands Hospital, and implanted subcutaneously in-group of 2 mice for each patient. For esophageal cancer specimens, when one of them has reached 1.5 cc, it was excised and was cut into small pieces of (0.3×0.3×0.3 cm), and transplanted subcutaneously into another 10 mice. When tumors reached ˜100 mm^3, mice were randomized in the following 2 groups, with 5 mice in each group: • Group 1: Control: no treatment. • Group 2: INT2-31 (Compound 31): 50 mg/kg/day in 50 μL by i.p administration for 21 days.
Mice were euthanized 30-40 days after tumor innoculation and tumor and tissue collected. For inhibition of tumor growth in our subcutaneous model, tumor volumes (length×width×height×p/6) and body weights were determined daily including weekends and holidays, to monitor tumor growth and evaluate overall clinical condition, taking into account weight loss and indications of pain, distress, or abnormal behavior and physiology. Experiments were terminated when the mean control tumor volume was 1.5 cc (approximately 30-40 days).
Immunohistochemistry: Xenograft tumor tissue was fixed in 10% formalin and embedded in paraffin. For Ki-67 staining, samples underwent deparaffinization and antigen retrieval and incubated with the primary antibody, Ki-67 (Dako M7240), at 1:200 concentration overnight at 4° C. The tissues were stained with the chromogen DAB and counterstained with hematoxylin and 1% TBS.
Subsequently, we evaluated the inhibition of in vivo tumor growth of esophageal patient #5 specimen was evaluated. […]

[3] = Previous toxicity testing at 50 mg/kg/day; format: in vivo, mice; details: 50 mg/kg/day i.p.

## CSc1ncnc2c1ccn2C1O[C@H](COP(=O)(O)O)[C@@H](O)[C@H]1O (stereo partly drawn) [INT2-31, 4-(Methylthio)-7-(5-O-phosphono-D-ribofuranosyl)-{7H-Pyrrolo[2,3-d]pyrimidine}]
C8161 melanoma cells
  growth, cell numbers: potent time and dose dependent inhibition
[1]; 0.05 μM, 72-hour treatment
  proliferation of FAK+/+ fibroblast cells: reduced the proliferation
  proliferation of FAK−/− cells: no effect
[1]; MTT, p<0.05
  effect on FAK wildtype compared to null fibroblasts: significantly more sensitive
[2]; 50 mg/kg daily intraperitoneal
  body weights between animals in each group: no significant difference
[2]; 50 mg/kg daily intraperitoneal, 21 days, p<0.05
  tumor growth compared to PBS control: significant decrease
[2]; 50 mg/kg vs PBS group
  percent of cells reactive to Ki67: significantly decreased
[3]
  toxicity: no measurable toxicity
